Counter-ions that a name gives are not always drawn.

This experiment deals with Jurkat HIV-luciferase clones. The experiment in a line: Jurkat latency reversal assay. It counts as cell-based. The following applies: Homo sapiens, Jurkat, 48 h. How it is done: Jurkat HIV-luciferase clones were maintained in RPMI medium 1640 (Gibco by Life Technologies) containing 10% (vol/vol) fetal bovine serum (SAFC/Sigma-Aldrich) and 25 units/mL penicillin, 25 units/mL streptomycin (Gibco by Life Technologies), and were split 1:4 every 3 to 4 days to maintain a cell density of ˜0.3 to 1 million cells/mL. The Jurkat clones were maintained with the addition of 500 nM EFV in the medium. Three Jurkat cell clones (C16, I15, and N6), each harboring one or two integrated HIV proviruses expressing the luciferase reporter gene, were added at equal amounts for a total of 5,000 cells per well to 384-well plates containing compound titrations. Dose-response testing was performed on compounds dissolved in dimethyl sulfoxide (DMSO, Fisher Scientific, Merelbeke, Belgium) dispensed in duplicate serial 3-fold, 14-point titrations using a D300e Digital Droplet Dispenser (Hewlett-Packard) to give final assay concentrations of 10 μM to 2.1 pM in 50 μL of medium at 0.5% DMSO (vol/vol) final concentration. Cells and compound were incubated at 37° C. for 48 hours, unless otherwise indicated, followed by the addition of 20 μL of Steady-Glo® Luciferase (Promega). Luminescence resulting from the induction of the virally expressed luciferase was measured using an EnVision 2102 Multilabel Plate Reader (Perkin Elmer). Dose-response relationships were analyzed with GraphPad PRISM 6 using a four-parameter logistic regression model to calculate the concentration of compound that gives half-maximal response (EC50) and the maximal percent activation compared to the vehicle control.
As for `CN[C@@H](C)C(=S)N[C@H]1CCS[C@H]2CC(C)(C)[C@@H](C(=O)N[C@H]3c4ccccc4C[C@H]3OCCCCCCO[C@@H]3Cc4ccccc4[C@@H]3NC(=O)[C@H]3N4C(=O)[C@@H](NC(=S)[C@H](C)NC)CCS[C@H]4CC3(C)C)N2C1=O` [compound 21, (4S,4′S,7S,7′S,9aS,9a′S)-N,N′-((1S,1′S,2R,2′R)-(hexane-1,6-diylbis(oxy))bis(2,3-dihydro-1H-indene-2,1-diyl))bis(8,8-dimethyl-4-((S)-2-(methylamino)propanethioamido)-5-oxooctahydropyrrolo[2,1-b][1,3]thiazepine-7-carboxamide)], the EC50 was 13 nM.

Regarding `CN[C@@H](C)C(=O)N[C@H]1CCS[C@H]2CC(C)(C)[C@@H](C(=O)N[C@H]3c4ccccc4C[C@H]3OCc3ccc(CO[C@@H]4Cc5ccccc5[C@@H]4NC(=O)[C@H]4N5C(=O)[C@@H](NC(=O)[C@H](C)NC)CCS[C@H]5CC4(C)C)cc3)N2C1=O` [compound 22, (4S,4′S,7S,7′S,9aS,9a′S)-N,N′-((1S,1′S,2R,2′R)-((1,4-phenylenebis(methylene))bis(oxy))bis(2,3-dihydro-1H-indene-2,1-diyl))bis(8,8-dimethyl-4-((S)-2-(methylamino)propanamido)-5-oxooctahydropyrrolo[2,1-b][1,3]thiazepine-7-carboxamide)], the EC50 was found to be 8.8 nM.

Regarding `CN[C@@H](C)C(=S)N[C@H]1CCS[C@H]2CC(C)(C)[C@@H](C(=O)N[C@H]3c4ccccc4C[C@H]3OCc3ccc(CO[C@@H]4Cc5ccccc5[C@@H]4NC(=O)[C@H]4N5C(=O)[C@@H](NC(=S)[C@H](C)NC)CCS[C@H]5CC4(C)C)cc3)N2C1=O` [compound 23, (4S,4′S,7S,7′S,9aS,9a′S)-N,N′-((1S,1′S,2R,2′R)-((1,4-phenylenebis(methylene))bis(oxy))bis(2,3-dihydro-1H-indene-2,1-diyl))bis(8,8-dimethyl-4-((S)-2-(methylamino)propanethioamido)-5-oxooctahydropyrrolo[2,1-b][1,3]thiazepine-7-carboxamide)], the EC50 came to 55.5 nM.

Consider `CN[C@@H](C)C(=O)N[C@H]1CCS[C@H]2CC(C)(C)[C@@H](C(=O)N[C@H](C(=O)NCc3ccc(CNC(=O)[C@@H](NC(=O)[C@H]4N5C(=O)[C@@H](NC(=O)[C@H](C)NC)CCS[C@H]5CC4(C)C)c4ccccc4)cc3)c3ccccc3)N2C1=O` [compound 24, (4S,4′S,7S,7′S,9aS,9a′S)-N,N′-((1S,1′S)-((1,4-phenylenebis(methylene))bis(azanediyl))bis(2-oxo-1-phenylethane-2,1-diyl))bis(8,8-dimethyl-4-((S)-2-(methylamino)propanamido)-5-oxooctahydropyrrolo[2,1-b][1,3]thiazepine-7-carboxamide)], for which the EC50 turned out to be 47.9 nM.

For the molecule `CN[C@@H](C)C(=S)N[C@H]1CCS[C@H]2CC(C)(C)[C@@H](C(=O)N[C@H](C(=O)NCc3ccc(CNC(=O)[C@@H](NC(=O)[C@H]4N5C(=O)[C@@H](NC(=S)[C@H](C)NC)CCS[C@H]5CC4(C)C)c4ccccc4)cc3)c3ccccc3)N2C1=O` [compound 25, (4S,4′S,7S,7′S,9aS,9a′S)-N,N′-((1S,1′S)-((1,4-phenylenebis(methylene))bis(azanediyl))bis(2-oxo-1-phenylethane-2,1-diyl))bis(8,8-dimethyl-4-((S)-2-(methylamino)propanethioamido)-5-oxooctahydropyrrolo[2,1-b][1,3]thiazepine-7-carboxamide) dihydrochloride], the EC50 was 61.8 nM.

With `CN[C@@H](C)C(=O)N[C@H]1CCS[C@H]2CC(C)(C)[C@@H](C(=O)N[C@H](C(=O)N3CCN(C(=O)[C@@H](NC(=O)[C@H]4N5C(=O)[C@@H](NC(=O)[C@H](C)NC)CCS[C@H]5CC4(C)C)c4ccccc4)CC3)c3ccccc3)N2C1=O` [compound 26, (4S,4′S,7S,7′S,9aS,9a′S)-N,N′-((1S,1′S)-piperazine-1,4-diylbis(2-oxo-1-phenylethane-2,1-diyl))bis(8,8-dimethyl-4-((S)-2-(methylamino)propanamido)-5-oxooctahydropyrrolo[2,1-b][1,3]thiazepine-7-carboxamide) dihydrochloride], the EC50 was 69.1 nM.

Take `CN[C@@H](C)C(=S)N[C@H]1CCS[C@H]2CC(C)(C)[C@@H](C(=O)N[C@H](C(=O)N3CCN(C(=O)[C@@H](NC(=O)[C@H]4N5C(=O)[C@@H](NC(=S)[C@H](C)NC)CCS[C@H]5CC4(C)C)c4ccccc4)CC3)c3ccccc3)N2C1=O` [compound 27, (4S,4′S,7S,7′S,9aS,9a′S)-N,N′-((1S,1′S)-piperazine-1,4-diylbis(2-oxo-1-phenylethane-2,1-diyl))bis(8,8-dimethyl-4-((S)-2-(methylamino)propanethioamido)-5-oxooctahydropyrrolo[2,1-b][1,3]thiazepine-7-carboxamide) dihydrochloride]: the EC50 stood at 52.2 nM.

Consider `CN[C@@H](C)C(=O)N[C@H]1CCS[C@H]2CC(C)(C)[C@@H](C(=O)N[C@H](C(=O)NCC#CC#CCNC(=O)[C@@H](NC(=O)[C@H]3N4C(=O)[C@@H](NC(=O)[C@H](C)NC)CCS[C@H]4CC3(C)C)c3ccccc3)c3ccccc3)N2C1=O` [compound 30, (4S,4′S,7S,7′S,9aS,9a′S)-N,N′-((1S,1′S)-(hexa-2,4-diyne-1,6-diylbis(azanediyl))bis(2-oxo-1-phenylethane-2,1-diyl))bis(8,8-dimethyl-4-((S)-2-(methylamino)propanamido)-5-oxooctahydropyrrolo[2,1-b][1,3]thiazepine-7-carboxamide) dihydrochloride], for which the EC50 came out at 65.4 nM.

In the case of `CN[C@@H](C)C(=O)N[C@H]1CCS[C@H]2CC(C)(C)[C@@H](C(=O)N[C@H](C(=O)NCC#CC#CCNC(=O)[C@@H](NC(=O)[C@H]3N4C(=O)[C@@H](NC(=S)[C@H](C)NC)CCS[C@H]4CC3(C)C)c3ccccc3)c3ccccc3)N2C1=O` [compound 31, (4S,7S,9aS)-N-((S)-2-((6-((S)-2-((4S,7S,9aS)-8,8-dimethyl-4-((S)-2-(methylamino)propanamido)-5-oxooctahydropyrrolo[2,1-b][1,3]thiazepine-7-carboxamido)-2-phenylacetamido)hexa-2,4-diyn-1-yl)amino)-2-oxo-1-phenylethyl)-8,8-dimethyl-4-((S)-2-(methylamino)propanethioamido)-5-oxooctahydropyrrolo[2,1-b][1,3]thiazepine-7-carboxamide dihydrochloride], the EC50 was found to be 25.8 nM.

For `CN[C@@H](C)C(=S)N[C@H]1CCS[C@H]2CC(C)(C)[C@@H](C(=O)N[C@H](C(=O)NCC#CC#CCNC(=O)[C@@H](NC(=O)[C@H]3N4C(=O)[C@@H](NC(=S)[C@H](C)NC)CCS[C@H]4CC3(C)C)c3ccccc3)c3ccccc3)N2C1=O` [compound 32, (4S,4′S,7S,7′S,9aS,9a′S)-N,N′-((1S,1′S)-(hexa-2,4-diyne-1,6-diylbis(azanediyl))bis(2-oxo-1-phenylethane-2,1-diyl))bis(8,8-dimethyl-4-((S)-2-(methylamino)propanethioamido)-5-oxooctahydropyrrolo[2,1-b][1,3]thiazepine-7-carboxamide)], the EC50 was found to be 166 nM.

Turning to `CN[C@@H](C)C(=O)N[C@H]1CCS[C@H]2CC(C)(C)[C@@H](C(=O)N[C@H](COCC#CC#CCOC[C@@H](NC(=O)[C@H]3N4C(=O)[C@@H](NC(=S)[C@H](C)NC)CCS[C@H]4CC3(C)C)c3ccccc3)c3ccccc3)N2C1=O` [compound 34, (4S,7S,9aS)-N-((S)-2-((6-((S)-2-((4S,7S,9aS)-8,8-dimethyl-4-((S)-2-(methylamino)propanamido)-5-oxooctahydropyrrolo[2,1-b][1,3]thiazepine-7-carboxamido)-2-phenylethoxy)hexa-2,4-diyn-1-yl)oxy)-1-phenylethyl)-8,8-dimethyl-4-((S)-2-(methylamino)propanethioamido)-5-oxooctahydropyrrolo[2,1-b][1,3]thiazepine-7-carboxamide], the EC50 came to 36.3 nM.

Turning to `CN[C@@H](C)C(=S)N[C@H]1CCS[C@H]2CC(C)(C)[C@@H](C(=O)N[C@H](COCC#CC#CCOC[C@@H](NC(=O)[C@H]3N4C(=O)[C@@H](NC(=S)[C@H](C)NC)CCS[C@H]4CC3(C)C)c3ccccc3)c3ccccc3)N2C1=O` [compound 35, (4S,4′S,7S,7′S,9aS,9a′S)-N,N′-((1S,1′S)-(hexa-2,4-diyne-1,6-diylbis(oxy))bis(1-phenylethane-2,1-diyl))bis(8,8-dimethyl-4-((S)-2-(methylamino)propanethioamido)-5-oxooctahydropyrrolo[2,1-b][1,3]thiazepine-7-carboxamide)], the concentration for a half-maximal effect (EC50) is 9 nM.

In the case of `CN[C@@H](C)C(=O)N[C@H]1CCS[C@H]2CC(C)(C)[C@@H](C(=O)N[C@H](COCCCCOC[C@@H](NC(=O)[C@H]3N4C(=O)[C@@H](NC(=O)[C@H](C)NC)CCS[C@H]4CC3(C)C)c3ccccc3)c3ccccc3)N2C1=O` [compound 36, (4S,4′S,7S,7′S,9aS,9a′S)-N,N′-((1S,1′S)-(butane-1,4-diylbis(oxy))bis(1-phenylethane-2,1-diyl))bis(8,8-dimethyl-4-((S)-2-(methylamino)propanamido)-5-oxooctahydropyrrolo[2,1-b][1,3]thiazepine-7-carboxamide) dihydrochloride], the EC50 was 9.5 nM.

As a reminder, the EC50 is the concentration at which the effect is half-maximal.
